This is an account of results in PMC10054552, “Phototoxic Potential of Different DNA Intercalators for Skin Cancer Therapy: In Vitro Screening” (International Journal of Molecular Sciences, 2023).

A short description of series [1]: Phototoxicity assay in MET1 cells (irradiation 2.5 J/cm², resazurin). It is filed as cell-based, human. The note with it: human, MET1 squamous cell carcinoma cells; MET1 cells, 457 nm, all investigated concentrations (1.25-40 µM); read-out: cell viability under 457 nm light. The procedure:
(§1) The […] SCC cell line (human squamous cell carcinoma) was obtained from Ximbio (London, UK), HaCaT (immortalized human keratinocytes cell line) was obtained from Addexbio (San Diego, CA, USA) and WM983b (human metastatic melanoma cell line) was obtained from Rockland (Pottstown, PA, USA). […] Cells were cultivated in an incubator (Sanyo MCO-19AIC-UV) at 37 °C in a 5% CO2 humidified atmosphere. […] The plates were incubated for 24 h, followed by washing with PBS supplemented with calcium and magnesium. Afterwards, complete culture medium without phenol red was added, and the plates were irradiated from above and submitted to a dose of 2.5 J/cm2 of irradiation emitted by different wavelength light sources coupled with a homemade irradiation system created in our laboratory. […] This experiment was performed in an incubator that was able to keep plates in a dark environment; therefore, the dark control plates were protected from any light source, as well as the others, with the exception of the irradiation that each one was submitted to. Plates were incubated for another 24 h, and finally, the resazurin assay was performed as previously described in Section 3.3. For the phototoxicity study using WM983b cells, plates were prepared at a cell density of 40,000 cells/cm2, and cells were treated with MB and AO only.
A general note: The colour change of resazurin is a common sign of viable cells or microbes.

In the next series the test system is MET1 cells. The description is as above. The series is classed as cell-based, human. Conditions: Homo sapiens, MET-1, light or radiation study, MET1 cells, treated 24 h. The procedure: as §1

Read-outs that look alike come from different tables or passages of the source.

As for `CN(C)c1ccc2cc3ccc(N(C)C)cc3nc2c1` [Acridine orange, acridine orange], in series [1], the viability at 24 h is under 10%. Besides, the IC50 in the series on MET1 cells (254 nm light, 2.5 J/cm², read-out: IC50 254 nm) was 7.1 µM; with MET1 cells (457 nm light, 2.5 J/cm², read-out: IC50 457 nm), 0.4 µM; with MET1 cells (583 nm light, 2.5 J/cm², read-out: IC50 583 nm), 4.1 µM; with MET1 cells (640 nm light, 2.5 J/cm², read-out: IC50 640 nm), 6.6 µM; in the series with MET1 cells (dark control (no irradiation), read-out: IC50 Dark) it was 11.5 µM.

As a reminder, the viability is the share of living cells, or the viability signal relative to a control. By IC50 is commonly meant the concentration that inhibits the measured activity by half.
